From patent publication US10130631B2, “CML therapeutic agents with reduced drug-resistance and side-effect comprising 1,6-disubstituted indole compounds” (KOREA INSTITUTE OF SCIENCE AND TECHNOLOGY, priority 2016, dated 2018)

How the values were obtained:
Assay type in all cases: cell-based
Parental Ba/F3 = assay: Proliferation inhibitory activity, parental Ba/F3; conditions: Mus musculus, BaF3; parental Ba/F3 cell line
Protocol: (§1) The GI50 value was calculated by measuring the inhibitory effect on the proliferation of the compounds of the present invention in parental Ba/F3, wt-Bcr-Abl Ba/F3, T315I-Bcr-Abl Ba/F3 and VEGFR2 Ba/F3 cell lines.

wt-Bcr-Abl Ba/F3 = assay: Proliferation inhibitory activity, wt-Bcr-Abl Ba/F3; conditions: for GI50: Mus musculus, BaF3, wt-Bcr-Abl Ba/F3 cell line; for inhibitory activity against wt-Bcr-Abl (in words): summary of Table 1
Protocol: as §1

T315I-Bcr-Abl Ba/F3 = assay: Proliferation inhibitory activity, T315I-Bcr-Abl Ba/F3; conditions: for GI50: Mus musculus, BaF3, T315I-Bcr-Abl Ba/F3 cell line; for inhibitory activity against T315I-Bcr-Abl (in words): summary of Table 1
Protocol: as §1

VEGFR2 Ba/F3 = assay: Proliferation inhibitory activity, VEGFR2 Ba/F3; conditions: for GI50: Mus musculus, BaF3, VEGFR2 Ba/F3 cell line; for inhibitory activity against VEGFR2 kinase (in words): summary of Table 1
Protocol: as §1

## Cc1cn(-c2cc(C(=O)Nc3ccc(C)c(-c4ccc5ccn(-c6cc(N)ncn6)c5c4)c3)cc(C(F)(F)F)c2)cn1 [Compound No. 1]
Parental Ba/F3
  GI50: 0.3 to 3 µM
wt-Bcr-Abl Ba/F3
  GI50: 0.3 to 3 µM
  inhibitory activity against wt-Bcr-Abl (in words): have a wt-Bcr-Abl inhibitory activity
T315I-Bcr-Abl Ba/F3
  GI50: < 0.3 µM
  inhibitory activity against T315I-Bcr-Abl (in words): strong inhibitory activity
VEGFR2 Ba/F3
  GI50: > 3 µM
  inhibitory activity against VEGFR2 kinase (in words): does not exhibit any inhibitory activity

## Cc1ccc(NC(=O)c2cc(N3CCC(O)CC3)cc(C(F)(F)F)c2)cc1-c1ccc2ccn(-c3cc(N)ncn3)c2c1 [Compound No. 2]
Parental Ba/F3
  GI50: > 3 µM
wt-Bcr-Abl Ba/F3
  GI50: > 3 µM
T315I-Bcr-Abl Ba/F3
  GI50: < 0.3 µM
VEGFR2 Ba/F3
  GI50: > 3 µM

## Cc1ccc(NC(=O)c2cc(N3CCOCC3)cc(C(F)(F)F)c2)cc1-c1ccc2ccn(-c3cc(N)ncn3)c2c1 [Compound No. 3]
Parental Ba/F3
  GI50: > 3 µM
wt-Bcr-Abl Ba/F3
  GI50: > 3 µM
T315I-Bcr-Abl Ba/F3
  GI50: < 0.3 µM
VEGFR2 Ba/F3
  GI50: > 3 µM

## Cc1ccc(NC(=O)c2ccc(N3CCN(C)CC3)c(C(F)(F)F)c2)cc1-c1ccc2ccn(-c3cc(N)ncn3)c2c1 [Compound No. 5]
Parental Ba/F3
  GI50: 0.3 to 3 µM
wt-Bcr-Abl Ba/F3
  GI50: 0.3 to 3 µM
  inhibitory activity against wt-Bcr-Abl (in words): have a wt-Bcr-Abl inhibitory activity
T315I-Bcr-Abl Ba/F3
  GI50: < 0.3 µM
  inhibitory activity against T315I-Bcr-Abl (in words): strong inhibitory activity
VEGFR2 Ba/F3
  GI50: > 3 µM
  inhibitory activity against VEGFR2 kinase (in words): does not exhibit any inhibitory activity

## Cc1cn(-c2cc(C(=O)Nc3cccc(-c4ccc5ccn(-c6cc(N)ncn6)c5c4)c3)cc(C(F)(F)F)c2)cn1 [Compound No. 7, N-(3-(1-(6-aminopyrimidine-4-yl)-1H-indole-6-yl)phenyl)-3-(4-methyl-1H-imidazole-1-yl)-5-(trifluoromethyl)benzamide]
Parental Ba/F3
  GI50: > 3 µM
wt-Bcr-Abl Ba/F3
  GI50: > 3 µM
T315I-Bcr-Abl Ba/F3
  GI50: 0.3 to 3 µM
VEGFR2 Ba/F3
  GI50: > 3 µM

## Nc1cc(-n2ccc3ccc(-c4cccc(NC(=O)c5cc(N6CCOCC6)cc(C(F)(F)F)c5)c4)cc32)ncn1 [Compound No. 8, N-(3-(1-(6-aminopyrimidine-4-yl)-1H-indole-6-yl)phenyl)-3-morpholino-5-(trifluoromethyl)benzamide]
Parental Ba/F3
  GI50: > 3 µM
wt-Bcr-Abl Ba/F3
  GI50: > 3 µM
T315I-Bcr-Abl Ba/F3
  GI50: > 3 µM
VEGFR2 Ba/F3
  GI50: > 3 µM

## COc1ccccc1NC(=O)Nc1ccc(C)c(-c2ccc3ccn(-c4cc(N)ncn4)c3c2)c1 [Compound No. 9, 1-(3-(1-(6-aminopyrimidine-4-yl)-1H-indole-6-yl)-4-methylphenyl)-3-(2-methoxyphenyl) urea]
Parental Ba/F3
  GI50: > 3 µM
wt-Bcr-Abl Ba/F3
  GI50: > 3 µM
T315I-Bcr-Abl Ba/F3
  GI50: > 3 µM
VEGFR2 Ba/F3
  GI50: > 3 µM

## COc1ccccc1NC(=O)Nc1cccc(-c2ccc3ccn(-c4ncnc5[nH]ccc45)c3c2)c1 [Compound No. 10, 1-(3-(1-(7H-pyrrolo[2,3-d]pyrimidine-4-yl)-1H-indole-6-yl)phenyl)-3-(2-methoxyphenyl)urea]
Parental Ba/F3
  GI50: > 3 µM
wt-Bcr-Abl Ba/F3
  GI50: > 3 µM
T315I-Bcr-Abl Ba/F3
  GI50: > 3 µM
VEGFR2 Ba/F3
  GI50: > 3 µM

## Cc1cn(-c2cc(C(=O)Nc3ccc(C)c(-c4ccc5ccn(-c6ncnc7[nH]ccc67)c5c4)c3)cc(C(F)(F)F)c2)cn1 [Compound No. 11]
Parental Ba/F3
  GI50: 0.3 to 3 µM
wt-Bcr-Abl Ba/F3
  GI50: < 0.3 µM
  inhibitory activity against wt-Bcr-Abl (in words): have a wt-Bcr-Abl inhibitory activity
T315I-Bcr-Abl Ba/F3
  GI50: < 0.3 µM
  inhibitory activity against T315I-Bcr-Abl (in words): strong inhibitory activity
VEGFR2 Ba/F3
  GI50: > 3 µM
  inhibitory activity against VEGFR2 kinase (in words): does not exhibit any inhibitory activity

## Cc1ccc(NC(=O)c2cc(N3CCC(O)CC3)cc(C(F)(F)F)c2)cc1-c1ccc2ccn(-c3ncnc4[nH]ccc34)c2c1 [Compound No. 12, N-(3-(1-(7H-pyrrolo[2,3-d]pyrimidine-4-yl)-1H-indole-6-yl)-4-methylphenyl)-3-(4-hydroxypiperidine-1-yl)-5-(trifluoromethyl)benzamide]
Parental Ba/F3
  GI50: > 3 µM
wt-Bcr-Abl Ba/F3
  GI50: > 3 µM
T315I-Bcr-Abl Ba/F3
  GI50: 0.3 to 3 µM
VEGFR2 Ba/F3
  GI50: > 3 µM

## Cc1ccc(NC(=O)c2cc(N3CCOCC3)cc(C(F)(F)F)c2)cc1-c1ccc2ccn(-c3ncnc4[nH]ccc34)c2c1 [Compound No. 13, N-(3-(1-(7H-pyrrolo[2,3-d]pyrimidine-4-yl)-1H-indole-6-yl)-4-methylphenyl)-3-morpholino-5-(trifluoromethyl)benzamide]
Parental Ba/F3
  GI50: > 3 µM
wt-Bcr-Abl Ba/F3
  GI50: 0.3 to 3 µM
T315I-Bcr-Abl Ba/F3
  GI50: 0.3 to 3 µM
VEGFR2 Ba/F3
  GI50: > 3 µM

## Cc1ccc(NC(=O)c2cc(N3CCN(C)CC3)cc(C(F)(F)F)c2)cc1-c1ccc2ccn(-c3ncnc4[nH]ccc34)c2c1 [Compound No. 14, N-(3-(1-(7H-pyrrolo[2,3-d]pyrimidine-4-yl)-1H-indole-6-yl)-4-methylphenyl)-3-(4-methylpiperazine-1-yl)-5-(trifluoromethyl)benzamide]
Parental Ba/F3
  GI50: 0.3 to 3 µM
wt-Bcr-Abl Ba/F3
  GI50: 0.3 to 3 µM
T315I-Bcr-Abl Ba/F3
  GI50: < 0.3 µM
VEGFR2 Ba/F3
  GI50: 0.3 to 3 µM

## Cc1ccc(NC(=O)c2ccc(N3CCN(C)CC3)c(C(F)(F)F)c2)cc1-c1ccc2ccn(-c3ncnc4[nH]ccc34)c2c1 [Compound No. 15, N-(3-(1-(7H-pyrrolo[2,3-d]pyrimidine-4-yl)-1H-indole-6-yl)-4-methylphenyl)-4-(4-methylpiperazine-1-yl)-5-(trifluoromethyl)benzamide]
Parental Ba/F3
  GI50: 0.3 to 3 µM
wt-Bcr-Abl Ba/F3
  GI50: 0.3 to 3 µM
T315I-Bcr-Abl Ba/F3
  GI50: < 0.3 µM
VEGFR2 Ba/F3
  GI50: 0.3 to 3 µM

## Cc1ccc(NC(=O)c2ccc(CN3CCN(C)CC3)c(C(F)(F)F)c2)cc1-c1ccc2ccn(-c3ncnc4[nH]ccc34)c2c1 [Compound No. 16, N-(3-(1-(7H-pyrrolo[2,3-d]pyrimidine-4-yl)-1H-indole-6-yl)-4-methylphenyl)-4-((4-methylpiperazine-1-yl)methyl)-3-(trifluoromethyl)benzamide]
Parental Ba/F3
  GI50: 0.3 to 3 µM
wt-Bcr-Abl Ba/F3
  GI50: < 0.3 µM
T315I-Bcr-Abl Ba/F3
  GI50: < 0.3 µM
VEGFR2 Ba/F3
  GI50: 0.3 to 3 µM
